The values that follow are results of earlier work, collected in patent US7648982B2 (priority 2003, dated 2010).

For data set [1] the following is noted: in vivo, iv.
For data set [2] the following is noted: in vivo.

Turning to `CN1CC[C@]23c4c5ccc(O)c4O[C@H]2[C@@H](O)C=C[C@H]3[C@H]1C5` [morphine], the “delay of peak drug effect from the time of injection” value in data set [1] was 10 to 15 min. In data set [2], the K10 result is given as “Morphine_K10 = 0.07051”, the K12 entry is given as “Morphine_K12 = 0.1273”, the K13 entry is “Morphine_K13 = 0.01826” and the K21 entry is on record as “Morphine_K21 = 0.02596”. Also, in data set [2], the K31 result is on record as “Morphine_K31 = 0.001633”, the Ke0 entry is “Morphine_Ke0 = 0.005” and the V1 entry is listed as “Morphine_V1 = 17.8”.
